Among the test systems are A549; Malme-3M; SK-MEL-28; SK-MEL-5; SF-268; KM12; Hs-578T; DU-145; SW-620; MCF7; SN12C; EKVX; 786-0; OVCAR-8; UO-31; NCI-H460; T47D; U-251; IGROV-1; K562.
Holding throughout (test): DTP human tumour cell line panel, 48 h

The GI50 is the concentration giving 50% growth inhibition.

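Five concentrations, 48 hours, 96-well plates. GI50: concentration for 50% inhibition of growth.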 Calls of active or inactive are those of the source. Cut-off read from the data, not from the text of the source: active = GI50 up to about 1.1 µM and inactive = higher.

Take `C=C1C(=O)OC2C1CCC(C)C1C=CC(=O)C12C` (stereo not given): the GI50 in the test on A549 is 7.76 µM (inactive); with Malme-3M, 2.5 µM (inactive); in the test with SK-MEL-28 it was 2.05 µM (inactive); in the test with SK-MEL-5 it was 3.33 µM (inactive); with SF-268 it was 8.61 µM (inactive); in the test on KM12 it was 2.16 µM (inactive). Further, the GI50 in the test on Hs-578T was 2.56 µM (inactive); in the test with DU-145, 2.53 µM (inactive); in the test with SW-620 it was 1.8 µM (inactive); in the test on MCF7 it was 3.92 µM (inactive); in the test with SN12C, 3.33 µM (inactive); in the test with EKVX, 8.79 µM (inactive). For the same compound, the GI50 in the test with 786-0 was 1.85 µM (inactive); in the test with OVCAR-8 it was 2.06 µM (inactive); in the test with UO-31, 4.75 µM (inactive); in the test on NCI-H460 it was 4.84 µM (inactive); in the test on T47D, 2.45 µM (inactive); in the test with U-251, 11.9 µM (inactive). The GI50 is 6.14 µM (inactive) in the test with IGROV-1 and 2.48 µM (inactive) in the test on K562.
As for `CCCCC(C#N)(OP1(=O)OC(c2ccccc2)C(C)N1C)c1ccccc1` (stereo not given), the GI50 in the test on A549 is 20.1 µM (inactive); in the test on Malme-3M it was 15.6 µM (inactive); with SK-MEL-28, 16.3 µM (inactive); in the test with SK-MEL-5, 17.3 µM (inactive); in the test with SF-268, 17.4 µM (inactive); in the test on KM12 it was 19.6 µM (inactive). Further, the GI50 in the test with Hs-578T was 16.3 µM (inactive); in the test with DU-145, 19.7 µM (inactive); in the test with SW-620 it was 16.4 µM (inactive); in the test with MCF7, 19.9 µM (inactive); with SN12C, 16.7 µM (inactive); in the test with EKVX, 22.5 µM (inactive). The GI50 was 17.3 µM (inactive) with 786-0; 17.6 µM (inactive) in the test on OVCAR-8; 17.3 µM (inactive) in the test on UO-31; 16.1 µM (inactive) in the test on NCI-H460; 21.3 µM (inactive) in the test with T47D; 17.3 µM (inactive) in the test with U-251. For the same compound, the GI50 in the test with IGROV-1 is 16.7 µM (inactive); in the test with K562, 19 µM (inactive).
On to `COc1cc(C2SCC(=O)N2c2ccc(NC(=O)c3ccc(N4C(=O)CSC4c4cc(OC)c(OC)c(OC)c4)cc3)cc2)cc(OC)c1OC` (stereo not given), for which the GI50 in the test on A549 is > 100 µM (inactive); in the test with Malme-3M it was 79.1 µM (inactive); in the test with SK-MEL-28 it was 42.5 µM (inactive); in the test on SK-MEL-5, 46.3 µM (inactive); with SF-268 it was 81.3 µM (inactive); in the test on KM12 it was 33 µM (inactive). The GI50 in the test on Hs-578T was 68.1 µM (inactive); in the test on DU-145, > 100 µM (inactive); in the test with SW-620, 36.9 µM (inactive); with MCF7, 43.3 µM (inactive); in the test with SN12C, > 100 µM (inactive); in the test with EKVX it was 57 µM (inactive). Besides, the GI50 is 70 µM (inactive) in the test with 786-0; 40.3 µM (inactive) with OVCAR-8; 67.1 µM (inactive) with UO-31; > 100 µM (inactive) with NCI-H460; 19.8 µM (inactive) with T47D; 49.3 µM (inactive) with U-251. Also, the GI50 is 32.4 µM (inactive) with IGROV-1 and 37.9 µM (inactive) in the test with K562.
Turning to `CC(C)(C)n1c(=O)n(C(=O)C(Cl)(Cl)Cl)n(C(=O)C(Cl)(Cl)Cl)c1=O`, the GI50 with A549, with Malme-3M, in the test on SK-MEL-28, in the test on SK-MEL-5, with SF-268 and in the test on KM12 was > 100 µM (inactive) in each case. The GI50 with Hs-578T, with DU-145, in the test on SW-620, in the test with MCF7, with SN12C and with EKVX was > 100 µM (inactive) each time. Besides, the GI50 in the test on 786-0, with OVCAR-8, in the test on UO-31, in the test with NCI-H460, in the test on T47D and with U-251 was > 100 µM (inactive) throughout. Further, the GI50 in the test with IGROV-1 and in the test on K562 was > 100 µM (inactive) throughout.
Regarding `CC[C@@]1(O)C(=O)OCc2c1cc1n(c2=O)Cc2c-1nc1ccccc1c2/C=N\NC(=O)C(N)CS` (stereo not given in full), the GI50 was 2 µM (inactive) with A549; 9.59 µM (inactive) in the test with Malme-3M; 5.5 µM (inactive) in the test on SK-MEL-28; 1.13 µM (inactive) in the test on SK-MEL-5; 0.186 µM (active) in the test with SF-268; 24.8 µM (inactive) in the test on KM12. Moreover, the GI50 in the test with Hs-578T is > 100 µM (inactive); in the test with DU-145, 0.435 µM (active); with SW-620, 1.37 µM (inactive); with MCF7 it was 0.206 µM (active); in the test on SN12C, 0.116 µM (active); in the test with EKVX, 47 µM (inactive). For the same compound, the 50% growth inhibitory concentration (GI50) in the test on 786-0 was 0.51 µM (active); in the test with OVCAR-8, 1.09 µM (active); with UO-31, 0.989 µM (active); in the test with NCI-H460, 0.363 µM (active); in the test with T47D, 0.1 µM (active); in the test with U-251, 0.281 µM (active). The GI50 in the test with IGROV-1 is 6.7 µM (inactive); in the test with K562 it was 1.5 µM (inactive).
As for `COC(=O)C(Cc1ccccc1)NP(=O)(O)OCC1OC(n2cc(F)c(=O)[nH]c2=O)CC1O` (stereo not given), the GI50 with A549 is 0.955 µM (active); in the test with Malme-3M, > 100 µM (inactive); in the test on SK-MEL-28, > 67 µM (inactive); in the test on SK-MEL-5 it was 15.3 µM (inactive); with SF-268, 1.75 µM (inactive); in the test with KM12, > 100 µM (inactive). For the same compound, the GI50 in the test on Hs-578T was > 82.8 µM (inactive); in the test on DU-145 it was 9.79 µM (inactive); in the test on SW-620, > 100 µM (inactive); with MCF7, 0.317 µM (active); in the test with SN12C, 10.4 µM (inactive); with EKVX, > 100 µM (inactive). For the same compound, the GI50 in the test on 786-0 is 4.14 µM (inactive); in the test on OVCAR-8, 9.12 µM (inactive); in the test on UO-31 it was 5.24 µM (inactive); in the test on NCI-H460, 0.236 µM (active); in the test on T47D, 12.6 µM (inactive); with U-251 it was 8.99 µM (inactive). The GI50 in the test with IGROV-1 was > 22.5 µM (inactive); in the test with K562, 65.3 µM (inactive).
With `CC1OC2/C=C\CC(O)C(C)(C)C3CCC(C)C4(O3)O[B-]35OC(C(=O)OC1C2)C1(OC(CCC1C)C(C)(C)C(O)C/C=C\C1CC(OC(=O)C4O3)C(C)O1)O5` (stereo not given), the GI50 was 2.55 µM (inactive) with A549; 1.86 µM (inactive) in the test with Malme-3M; 1.77 µM (inactive) in the test with SK-MEL-28; 2.21 µM (inactive) with SK-MEL-5; 2.02 µM (inactive) in the test with SF-268; 3.07 µM (inactive) with KM12. Further, the GI50 with Hs-578T was 1.54 µM (inactive); in the test on DU-145, 7.96 µM (inactive); in the test with SW-620, 2.94 µM (inactive); in the test on MCF7, 2.01 µM (inactive); in the test on SN12C it was 2.69 µM (inactive); with EKVX, 2.15 µM (inactive). The GI50 is 2.83 µM (inactive) in the test with 786-0; 3.13 µM (inactive) in the test with OVCAR-8; 17.7 µM (inactive) in the test on UO-31; 1.6 µM (inactive) in the test on NCI-H460; 2.81 µM (inactive) with T47D; 1.33 µM (inactive) in the test with U-251. Further, the results for the GI50 in the test with IGROV-1 and with K562 were 13.9 µM (inactive) and 7.46 µM (inactive), respectively.
`CCC1(O)CC(OC2CC(N(C)C)C(OC3CC(O)C(OC4OC(C)C(=O)C=C4N)C(C)O3)C(C)O2)c2c(cc3c(c2O)C(=O)c2c(O)cccc2C3=O)C1C(=O)OC` (stereo not given): the GI50 with A549 was 0.00272 µM (active); with Malme-3M, 0.0508 µM (active); with SK-MEL-28 it was 0.0272 µM (active); in the test with SK-MEL-5 it was 0.00469 µM (active); in the test on SF-268, 0.199 µM (active); in the test on KM12, 0.00525 µM (active). Further, the GI50 was 0.12 µM (active) in the test with Hs-578T; 0.00637 µM (active) in the test with DU-145; < 0.001 µM (active) in the test with SW-620; 0.01 µM (active) in the test with MCF7; 0.158 µM (active) with SN12C; 0.0224 µM (active) with EKVX. In addition, the concentration for 50% growth inhibition (GI50) in the test on 786-0 is 0.00254 µM (active); with OVCAR-8 it was 0.00415 µM (active); in the test with UO-31, 0.167 µM (active); in the test on NCI-H460, < 0.001 µM (active); with T47D it was 0.0292 µM (active); in the test with U-251, 0.00385 µM (active). For the same compound, the 50% growth inhibitory concentration (GI50) was 0.00302 µM (active) in the test with IGROV-1 and < 0.001 µM (active) in the test with K562.
As to `O=c1ccc2cc(O)c(O)cc2o1` [ESCULETIN], the GI50 in the test on A549, with Malme-3M, in the test on SK-MEL-28, with SK-MEL-5, in the test on SF-268 and in the test with KM12 was > 100 µM (inactive) each time. Besides, the GI50 with Hs-578T, in the test on DU-145, in the test on SW-620, in the test with MCF7, in the test on SN12C and in the test on EKVX was > 100 µM (inactive) each time. Further, the GI50 in the test with 786-0 is > 100 µM (inactive); in the test on OVCAR-8 it was > 100 µM (inactive); in the test with UO-31 it was > 100 µM (inactive); with NCI-H460 it was > 100 µM (inactive); with T47D it was > 41.8 µM (inactive); in the test on U-251, > 100 µM (inactive). Moreover, the GI50 with IGROV-1 and in the test on K562 was > 100 µM (inactive) in each case.

Source of the values: ChEMBL document CHEMBL1201862, “PubChem BioAssay data set” (2004).
